Laboratory results published in patent US20230348475A1, “IMIDAZOPYRIDAZINE AND IMIDAZOPYRAZINE COMPOUNDS AS INHIBITORS OF CDK7” (THE TRANSLATIONAL GENOMICS RESEARCH INSTITUTE, priority 2020, published 2023).
Counter-ions that a name gives are not always drawn.

Experiments:
[1] = system: HPAC pancreatic cancer cell line; assay: Cell viability assay (Cell Titer Glo), HPAC; assay type: cell-based; settings: Table 7a, pancreatic cancer cell line, 72 hour incubation
Protocol: (§1) Materials: • Cell Lines (Treated according to ATCC guidelines) • Cell Titer Glo (Promega Cat #G7572) • DMSO • 96-well White Tissue Culture Treated Plates (Perkin Elmer Cat #60005680)
(§2) Cells were seeded in a white 96-well tissue culture treated plate at a density of 1500 cells in 90 μL of media per well and allowed to settle overnight. A ten point serial dilution of drugs was prepared at 10×concentration in media with the final assay concentrations starting at 30 μM, 10 μM, 3 μM, 1 μM, 0.3 μM . . . 0 μM. A dilution of DMSO was included as a control. The assay was set up by adding 10 μL of the corresponding drug to each well in duplicate, followed by a 72 hour incubation at 37° C., 5% CO2. Cell viability was quantified by adding 90 μL of Cell Titer Glo to each well and incubating at room temperature for 10 minutes. The reaction was quantified by measuring luminescence using the Envision Plate Reader. Data was analyzed using Graphpad Prism 7 software.

[2] = system: A673 Ewingsarcoma cell line; assay: Cell viability assay (Cell Titer Glo), A673; assay type: cell-based; settings: 72 hour incubation
Protocol: as §1, §2

[3] = system: Kasumi1 leukemia cancer cell line; assay: Cell viability assay (Cell Titer Glo), Kasumi1; assay type: cell-based; settings: 72 hour incubation
Protocol: as §1, §2

CDK7/CycH/MAT1 = CDK7/CycH/MAT1 (Homo sapiens, UniProt P50613); assay: Kinase Glo (ADP-Glo) biochemical assay, CDK7; settings: CDK7/CycH/MAT1 40 ng, ATP 1 μM, 60 minutes at RT, luminescence
Sequence of CDK7/CycH/MAT1 (P50613 whole entry): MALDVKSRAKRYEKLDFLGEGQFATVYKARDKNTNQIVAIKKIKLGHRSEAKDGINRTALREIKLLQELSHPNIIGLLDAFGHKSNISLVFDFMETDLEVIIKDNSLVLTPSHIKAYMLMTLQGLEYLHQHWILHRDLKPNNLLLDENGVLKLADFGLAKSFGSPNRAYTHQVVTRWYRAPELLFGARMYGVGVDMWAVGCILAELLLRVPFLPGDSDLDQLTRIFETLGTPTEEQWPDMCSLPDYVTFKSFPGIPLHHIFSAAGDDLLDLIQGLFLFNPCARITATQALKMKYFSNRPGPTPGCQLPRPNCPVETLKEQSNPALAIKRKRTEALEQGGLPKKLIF
Sequence of CDK7/CycH/MAT1 (P51946 whole entry partner): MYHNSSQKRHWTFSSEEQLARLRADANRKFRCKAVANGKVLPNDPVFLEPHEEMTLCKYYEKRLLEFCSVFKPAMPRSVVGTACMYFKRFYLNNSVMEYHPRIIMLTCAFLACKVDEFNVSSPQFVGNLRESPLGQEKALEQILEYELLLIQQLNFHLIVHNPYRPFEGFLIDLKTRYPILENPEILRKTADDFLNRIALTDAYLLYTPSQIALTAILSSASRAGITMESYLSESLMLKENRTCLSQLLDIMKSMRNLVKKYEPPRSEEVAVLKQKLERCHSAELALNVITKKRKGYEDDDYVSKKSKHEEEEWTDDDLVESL
Sequence of CDK7/CycH/MAT1 (P51948 whole entry partner): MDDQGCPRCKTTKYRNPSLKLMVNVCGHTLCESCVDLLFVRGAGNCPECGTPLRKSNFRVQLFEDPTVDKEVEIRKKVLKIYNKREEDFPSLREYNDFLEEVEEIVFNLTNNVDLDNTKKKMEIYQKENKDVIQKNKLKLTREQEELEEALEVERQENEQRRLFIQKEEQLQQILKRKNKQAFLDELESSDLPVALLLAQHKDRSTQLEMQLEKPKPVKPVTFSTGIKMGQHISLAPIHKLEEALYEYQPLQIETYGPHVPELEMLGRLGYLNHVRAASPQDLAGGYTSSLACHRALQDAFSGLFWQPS
Procedure, shortened: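 Enzyme (40 ng), RB-CTF peptide substrate (200 ng or 400 ng) and 1 μM ATP reacted in HEPES pH 7.5 buffer with MgCl2, MnCl2, DTT and Na3VO4 for 60 min at RT. Ten-point compound dilutions were tested from 30 μM final. ADP formed was read by ADP-Glo luminescence.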

[4] = system: MiaPaCa2 pancreatic cancer cell line; assay: Cell viability assay (Cell Titer Glo), MiaPaCa2; assay type: cell-based; settings: Table 7a, pancreatic cancer cell line, 72 hour incubation
Protocol: as §1, §2

[5] = system: MDA-MB-231 breast cancer cell line; assay: Cell viability assay (Cell Titer Glo), MDA-MB-231; assay type: cell-based; settings: Table 7a, breast cancer cell line, 72 hour incubation
Protocol: as §1, §2

[6] = system: A2780 ovarian cancer cell line; assay: Cell viability assay (Cell Titer Glo), A2780; assay type: cell-based; settings: 72 hour incubation
Protocol: as §1, §2

[7] = Homo sapiens, Kasumi 1, Table 7a

SMILES | IC50 ([1]; Homo sapiens, HPAC) [nM] | IC50 ([2]; Homo sapiens, A673, Table 7a) [nM] | IC50 [3, 7] [nM] | IC50 (CDK7/CycH/MAT1) [nM] | IC50 ([4]; Homo sapiens, MIA PaCa-2) [nM] | IC50 ([5]; Homo sapiens, MDA-MB-231) [nM] | IC50 ([6]; Homo sapiens, A2780, Table 7a) [nM] | IC50 [1] [nM] | IC50 ([2]; Table 7a) [nM] | IC50 ([3]; Table 7a) [nM] | IC50 [4] [nM] | IC50 [5] [nM] | IC50 ([6]; Table 7a) [nM]
CC(C)c1cnc2c(NCc3ccccc3OC(F)(F)F)cc(OC3CCNCC3)nn12 [Compound 43, 3-isopropyl-6-(piperidin-4-yloxy)-N-(2-(trifluoromethoxy)benzyl)imidazo[1,2-b]pyridazin-8-amine hydrochloride] | 1000 to 5000 | 1000 to 5000 | 1000 to 5000 | < 100 | 1000 to 5000 | 1000 to 5000 | 1000 to 5000 |  |  |  |  |  | 
CC(C)c1cnc2c(NCc3ccccc3OC(F)(F)F)cc(NC[C@@H]3CNCCO3)nn12 [Compound 46, (S)-3-isopropyl-N6-(morpholin-2-ylmethyl)-N8-(2-(trifluoromethoxy)benzyl)imidazo[1,2-b]pyridazine-6,8-diamine hydrochloride] | 1000 to 5000 | 1000 to 5000 | > 5000 | < 100 | 1000 to 5000 | 1000 to 5000 | 1000 to 5000 |  |  |  |  |  | 
CC(C)c1cnc2c(NCc3ccccc3OC(F)(F)F)cc(SC3CCCNC3)nn12 (stereo not drawn) [Compound 37, 3-isopropyl-6-(piperidin-3-ylthio)-N-(2-(trifluoromethoxy)benzyl)imidazo[1,2-b]pyridazin-8-amine] | 1000 to 5000 | 1000 to 5000 | 1000 to 5000 | < 100 | 1000 to 5000 | 1000 to 5000 | 1000 to 5000 |  |  |  |  |  | 
CC(C)c1cnc2c(N[C@@H](C)c3ccccc3)nc(SC3CCNCC3)cn12 [Compound 32, (S)-3-isopropyl-N-(1-phenylethyl)-6-(piperidin-4-ylthio)imidazo[1,2-α]pyrazin-8-amine dihydrochloride] | 1000 to 5000 | 1000 to 5000 | 1000 to 5000 | < 100 | 1000 to 5000 | > 5000 | 1000 to 5000 |  |  |  |  |  | 
CC(C)c1cnc2c(NCc3ccccc3OC(F)(F)F)cc(NC[C@H]3CNCCO3)nn12 [Compound 48, (R)-3-isopropyl-N6-(morpholin-2-ylmethyl)-N8-(2-(trifluoromethoxy)benzyl)imidazo[1,2-b]pyridazine-6,8-diamine hydrochloride] | 1000 to 5000 | 1000 to 5000 | > 5000 | < 100 | 1000 to 5000 | 1000 to 5000 | 1000 to 5000 |  |  |  |  |  | 
CC(C)c1cnc2c(NCc3ccccc3)nc(SC3CCCNC3)cn12 (stereo not drawn) [Compound 26, N-benzyl-3-isopropyl-6-(piperidin-3-ylthio)imidazo[1,2-α]pyrazin-8-amine formate salt] | 1000 to 5000 | 1000 to 5000 | 1000 to 5000 | < 100 | > 5000 | > 5000 | 1000 to 5000 |  |  |  |  |  | 
CC(C)c1cnc2c(N[C@@H](C)c3ccccc3)cc(SC3CCNCC3)nn12 [Compound 24, (S)-3-isopropyl-N-(1-phenylethyl)-6-(piperidin-4-ylthio)imidazo[1,2-b]pyridazin-8-amine] | 1000 to 5000 | 1000 to 5000 | 1000 to 5000 | < 100 | 1000 to 5000 | 1000 to 5000 | < 1000 |  |  |  |  |  | 
CC(C)c1cnc2c(Nc3cccc(F)c3)cc(SC3CCNCC3)nn12 [Compound 44, N-(3-fluorophenyl)-3-isopropyl-6-(piperidin-4-ylthio)imidazo[1,2-b]pyridazin-8-amine hydrochloride] | < 1000 | < 1000 | < 1000 | < 100 | < 1000 | < 1000 | < 1000 |  |  |  |  |  | 
CC(C)c1cnc2c(N[C@@H](C)c3ccccc3)nc(SC3CCCNC3)cn12 (stereo partly drawn) [Compound 34, 3-isopropyl-N-((S)-1-phenylethyl)-6-(piperidin-3-ylthio)imidazo[1,2-α]pyrazin-8-amine hydrochloride] | 1000 to 5000 | > 5000 | 1000 to 5000 | < 100 | 1000 to 5000 | > 5000 | 1000 to 5000 |  |  |  |  |  | 
CC(C)c1cnc2c(Nc3cccc(F)c3)cc(O[C@H]3CCCNC3)nn12 [Compound 39, (S)-N-(3-fluorophenyl)-3-isopropyl-6-(piperidin-3-yloxy)imidazo[1,2-b]pyridazin-8-amine hydrochloride] | 1000 to 5000 | 1000 to 5000 | 1000 to 5000 | < 100 | 1000 to 5000 | 1000 to 5000 | 1000 to 5000 |  |  |  |  |  | 
COc1ccccc1CNc1cc(NC2CCNCC2)nn2c(C(C)C)cnc12 [Compound 40, 3-isopropyl-N8-(2-methoxybenzyl)-N6-(piperidin-4-yl)imidazo[1,2-b]pyridazine-6,8-diamine hydrochloride] | 1000 to 5000 | 1000 to 5000 | > 5000 | < 100 | 1000 to 5000 | 1000 to 5000 | 1000 to 5000 |  |  |  |  |  | 
CC(C)c1cnc2c(Nc3cccc(F)c3)cc(NC3CCNCC3)nn12 [Compound 45, N8-(3-fluorophenyl)-3-isopropyl-N6-(piperidin-4-yl)imidazo[1,2-b]pyridazine-6,8-diamine hydrochloride] | 1000 to 5000 | 1000 to 5000 | 1000 to 5000 | < 100 | < 1000 | 1000 to 5000 | 1000 to 5000 |  |  |  |  |  | 
COc1ccccc1CNc1cc(SC2CCCNC2)nn2c(C(C)C)cnc12 (stereo not drawn) [Compound 36, hydrochloride] | 1000 to 5000 | 1000 to 5000 | 1000 to 5000 | < 100 | 1000 to 5000 | 1000 to 5000 | < 1000 |  |  |  |  |  | 
c1ccc(CNc2cc(SC3CCCNC3)nn3c(C4CC4)cnc23)cc1 (stereo not drawn) [Compound 23, N-benzyl-3-cyclopropyl-6-(piperidin-3-ylthio)imidazo[1,2-b]pyridazin-8-amine dihydrochloride salt] |  |  |  | < 100 |  |  |  | 1000 to 5000 | 1000 to 5000 | 1000 to 5000 | 1000 to 5000 | 1000 to 5000 | 1000 to 5000
COc1ccccc1CNc1cc(SC2CCNCC2)nn2c(C(C)C)cnc12 [Compound 35, hydrochloride] | < 1000 | < 1000 | 1000 to 5000 | < 100 | < 1000 | 1000 to 5000 | < 1000 |  |  |  |  |  | 
